According to US11478513B2, “Cutibacterium avidum strain, and composition for preventing or treating atopic dermatitis, comprising strain or cultured product thereof” (priority 2018, dated 2022):

Key:
[1] = tested on: Staphylococcus aureus KCTC 1621; test: Growth inhibition, overlay clear zone test (S. aureus); format: cell-based; conditions: RCM agar overlay, anaerobic, 37° C., about 40 hours; triclosan 10 mg/ml
Protocol: (§1) The effect of growth inhibition of S. aureus and C. acnes was confirmed by observing formation of a clear zone. […] The experiment was progressed, expecting that S. aureus and C. acnes around Cutibacterium avidum GENSC01 could not grow and they became transparent, if Cutibacterium avidum GENSC01 had the effect of inhibiting the growth of bacteria. The Cutibacterium avidum GENSC01 culture broth was collected with a platinum loop and was anaerobically cultured in a thin RCM agar plate at 37° C. for 72 hours by drawing a line about 2.5 cm. After confirming that Cutibacterium avidum GENSC01 sufficiently grew, S. aureus and C. acnes strains adjusted to 10^4 cfu/ml were inoculated in 10 ml RCM agar at about 45° C. which was not yet solidified, and they were well suspended before the medium was hardened, and they were evenly solidified by pouring them on the agar plate in which Cutibacterium avidum GENSC01 grew. In the solidified agar plate, S. aureus and C. acnes were further cultured anaerobically at 37° C. for about 40 hours and about 72 hours, respectively, to observe the size of the clear zone appearing around Cutibacterium avidum GENSC01. As the negative control group, phosphate-buffered saline (PBS) was used, and as the positive control group, triclosan was used, and S. aureus and C. acnes were treated at an amount of 10 mg/ml and 200 mg/ml, respectively.

[2] = tested on: Cutibacterium acnes ATCC 6919; test: Growth inhibition, overlay clear zone test (C. acnes); format: cell-based; conditions: RCM agar overlay, anaerobic, 37° C., about 72 hours; triclosan 200 mg/ml
Protocol: as §1

[3] = tested on: HaCaT cells; test: Cytotoxicity (MTT) in HaCaT cells; format: cell-based, human; conditions: experimental group in which rosmarinic acid was added, 48 hours
Protocol: To evaluate the cytotoxicity of fermented filtrates prepared in the Example 3, the following experiment was progressed. HaCaT cells were attached on a 96-well cell culture plate for 24 hours at 5×10^3 cells/well each and then the test group samples were added by concentration to culture it under the condition of 5% CO2 and 37° C. for 48 hours. 48 hours later, the cultured cell medium was removed, and 0.5 mg/ml dimethylthiazol-2-y1)-2-5-diphenyltetrazolium bromide (MTT) formazan solution was treated to cells, and they were reacted for 4 hours, and after the time passage, all the cell medium was removed and the formazan solution was dissolved by DMSO and then the absorbance was measured at 570 nm with SpectraMax M2. Then, the survival rate of the HaCaT cell line was calculated by converting with the equation of O.Dsample/O.Dcontrol×100.

[4] = tested on: IL-6; test: IL-6 RNA expression in HaCaT cells treated with heat-treated C. acnes; format: cell-based, human; conditions: pre-treated 1 hour, heat-treated C. acnes (100MOI) 4 hours, real-time PCR; FIG. 12
Protocol: (§2) At first, GENSCO1 fermented filtrates were pre-treated for 1 hour to cells in which 2×10^5 of HaCaT human keratinocyte lines were attached in a 6-well plate, respectively, by culturing them in a 37° C. and 5% CO2 incubator for 24 hours. Then, the heat-treated C. acnes (100MOI) was treated and was reacted for 4 hours. Then, after extracting RNA for each sample, the RNA expression for the inflammation response cytokine factors, IL-6 and IL-8 was confirmed by real-time PCR.

[5] = tested on: IL-8; test: IL-8 RNA expression in HaCaT cells treated with heat-treated C. acnes; format: cell-based, human; conditions: pre-treated 1 hour, heat-treated C. acnes (100MOI) 4 hours, real-time PCR; compared to control group induced to C. acnes; FIG. 11
Protocol: as §2

Compound | growth inhibition of S. aureus (clear zone) [1] | growth inhibition of C. acnes (clear zone) [2] | cell survival rate [3] | expression of IL-6 [4] | IL-8 expression (inflammation response) [5]
Oc1cc(Cl)ccc1Oc1ccc(Cl)cc1Cl [triclosan] | the clear zone was observed, but it had much smaller area than GENSC01 treatment | the clear zone was observed, but it had much smaller area than GENSC01 treatment | – | – | –
O=C(/C=C/c1ccc(O)c(O)c1)O[C@H](Cc1ccc(O)c(O)c1)C(=O)O [rosmarinic acid] | – | – | could be increased | reduced at a similar level | inflammation response was reduced
